Test results reported in ChEMBL document CHEMBL1152243, “Preliminary SAR studies on non-apamin-displacing 4-(aminomethylaryl)pyrrazolopyrimidine K(Ca) channel blockers” (Bioorg Med Chem Lett, 2008).
Activity calls are given as the source filed them. The rule behind the calls is not given here.

Assays:
Assay type in all cases: cell-based
[1] = molecular target: T1, Small conductance calcium-activated potassium channel protein 3 (Homo sapiens, UniProt Q9UGI6); test: Inhibition of Kca2.3 channel expressed in HEK293 cells at 30 uM by thallium flux assay
[2] = molecular target: T1, Small conductance calcium-activated potassium channel protein 3; test: Inhibition of Kca2.3 channel expressed in HEK293 cells by thallium flux assay
[3] = molecular target: T1, Small conductance calcium-activated potassium channel protein 3; test: Inhibition of Kca2.3 channel expressed in HEK293 cells by electrophysiology assay
[4] = molecular target: T1, Small conductance calcium-activated potassium channel protein 3; test: Displacement of [125I]apamin from Kca2.3 channel expressed in HEK293 cells by scintillation proximity assay
[5] = molecular target: Small conductance calcium-activated potassium channel protein 1 (Homo sapiens, UniProt Q92952); test: Inhibition of Kca2.1 channel expressed in HEK293 cells by thallium flux assay
[6] = molecular target: Small conductance calcium-activated potassium channel protein 2 (Homo sapiens, UniProt Q9H2S1); test: Inhibition of Kca2.2 channel expressed in HEK293 cells by thallium flux assay
Small conductance calcium-activated potassium channel protein 2, sequence (Q9H2S1 whole entry): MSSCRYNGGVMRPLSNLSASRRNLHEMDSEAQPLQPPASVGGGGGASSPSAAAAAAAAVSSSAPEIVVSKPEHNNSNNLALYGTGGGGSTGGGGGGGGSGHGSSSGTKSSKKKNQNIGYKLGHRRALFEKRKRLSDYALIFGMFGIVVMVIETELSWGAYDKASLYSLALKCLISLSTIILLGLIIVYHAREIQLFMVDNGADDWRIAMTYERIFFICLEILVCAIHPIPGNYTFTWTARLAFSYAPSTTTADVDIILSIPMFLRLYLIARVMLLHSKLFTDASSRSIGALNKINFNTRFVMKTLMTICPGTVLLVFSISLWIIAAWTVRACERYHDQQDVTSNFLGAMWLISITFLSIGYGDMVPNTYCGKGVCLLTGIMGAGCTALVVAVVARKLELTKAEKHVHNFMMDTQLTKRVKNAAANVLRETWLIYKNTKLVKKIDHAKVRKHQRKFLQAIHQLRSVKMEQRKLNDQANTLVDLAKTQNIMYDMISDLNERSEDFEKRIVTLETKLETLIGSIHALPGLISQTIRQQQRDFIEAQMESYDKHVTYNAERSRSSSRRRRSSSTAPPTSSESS

T1 sequence (Q9UGI6 whole entry): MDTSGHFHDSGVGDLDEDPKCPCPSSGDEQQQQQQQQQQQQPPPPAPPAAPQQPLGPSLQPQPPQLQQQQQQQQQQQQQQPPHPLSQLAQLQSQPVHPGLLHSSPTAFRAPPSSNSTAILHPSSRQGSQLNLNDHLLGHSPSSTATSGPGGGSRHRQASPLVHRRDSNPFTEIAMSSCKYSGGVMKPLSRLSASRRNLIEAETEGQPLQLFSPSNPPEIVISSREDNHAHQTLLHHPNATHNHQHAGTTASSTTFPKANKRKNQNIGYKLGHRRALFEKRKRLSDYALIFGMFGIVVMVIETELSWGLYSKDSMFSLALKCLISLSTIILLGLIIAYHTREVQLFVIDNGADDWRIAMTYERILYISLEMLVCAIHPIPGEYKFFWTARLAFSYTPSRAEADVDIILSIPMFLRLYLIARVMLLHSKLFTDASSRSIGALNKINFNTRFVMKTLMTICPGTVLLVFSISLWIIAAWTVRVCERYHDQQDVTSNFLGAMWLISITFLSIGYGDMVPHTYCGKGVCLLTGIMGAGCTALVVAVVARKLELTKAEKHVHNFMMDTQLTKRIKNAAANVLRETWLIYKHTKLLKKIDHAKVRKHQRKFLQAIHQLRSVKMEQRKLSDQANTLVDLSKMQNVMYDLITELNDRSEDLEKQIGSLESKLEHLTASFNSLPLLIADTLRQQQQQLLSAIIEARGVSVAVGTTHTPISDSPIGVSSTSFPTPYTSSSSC
Small conductance calcium-activated potassium channel protein 1, sequence (Q92952 whole entry): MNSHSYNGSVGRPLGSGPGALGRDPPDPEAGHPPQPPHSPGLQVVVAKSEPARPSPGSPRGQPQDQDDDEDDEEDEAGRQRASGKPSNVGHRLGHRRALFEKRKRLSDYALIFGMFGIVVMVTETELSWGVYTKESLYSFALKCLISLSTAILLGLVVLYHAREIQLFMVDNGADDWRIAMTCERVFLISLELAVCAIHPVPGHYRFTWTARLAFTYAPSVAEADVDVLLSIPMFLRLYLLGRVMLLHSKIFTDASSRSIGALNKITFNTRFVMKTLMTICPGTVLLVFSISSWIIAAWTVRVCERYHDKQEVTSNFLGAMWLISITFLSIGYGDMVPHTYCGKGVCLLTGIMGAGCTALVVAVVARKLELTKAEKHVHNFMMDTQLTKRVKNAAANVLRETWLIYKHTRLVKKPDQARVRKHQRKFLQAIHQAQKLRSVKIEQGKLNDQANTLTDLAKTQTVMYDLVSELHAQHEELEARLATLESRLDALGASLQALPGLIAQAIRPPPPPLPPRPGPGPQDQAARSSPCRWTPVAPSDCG

Row | SMILES | inhibition [1] [%] | IC50 [2] [µM] | also measured
1 | Clc1cccc(CNc2cc(Cl)nc3ccnn23)c1 | 113 | 5.2 | –
2 | FC(F)(F)c1ccccc1CNc1cc(Cl)nc2ccnn12 | 50 | > 30 | –
3 | Clc1cc(Cl)cc(CNc2cc(Cl)nc3ccnn23)c1 | 43 | > 30 | –
4 | FC(F)(F)c1cccc(CNc2cc(Cl)nc3ccnn23)c1 | 80 | 14.6 | –
5 | Clc1cc(NCc2cccs2)n2nccc2n1 | 105 | 0.35 | IC50 [3]: 0.58 µM; Activity [4]: inactive; IC50 [5]: 0.3 µM; IC50 [6]: 0.53 µM
6 | C[C@@H](Nc1cc(Cl)nc2ccnn12)c1ccccc1 | – | 1 | –
7 | Clc1cc(NCc2ccncc2)n2nccc2n1 | – | – | Activity [2]: inactive
8 | FC(F)(F)Oc1cccc(CNc2cc(Cl)nc3ccnn23)c1 | 71 | 11 | –
9 | Clc1cc(NCc2ccc(Cl)c(Cl)c2)n2nccc2n1 | 25 | > 30 | –
10 | Cc1cccc(CNc2cc(Cl)nc3ccnn23)c1 | 91 | 10.7 | –
11 | FC(F)(F)Oc1ccccc1CNc1cc(Cl)nc2ccnn12 | 87 | 10 | –
12 | C[C@H](Nc1cc(Cl)nc2ccnn12)c1ccccc1 | – | – | Activity [2]: inactive
13 | O=[N+]([O-])c1cccc(CNc2cc(Cl)nc3ccnn23)c1 | 96 | 7.9 | –

Now from value to molecule, other results behind:

Row | inhibition [1] [%] | IC50 [2] [µM] | SMILES | also measured
14 | 75 | 14.6 | Cc1ccccc1CNc1cc(Cl)nc2ccnn12 | –
15 | 23 | > 30 | Clc1cc(NCc2ccc(Oc3ccccc3)cc2)n2nccc2n1 | –
16 | 62 | 15.4 | FC(F)(F)Oc1ccc(CNc2cc(Cl)nc3ccnn23)cc1 | –
17 | – | 7.5 | Clc1cc(NC(Cc2ccccc2)c2ccccc2)n2nccc2n1 (stereo unspecified) | –
18 | 46 | > 30 | Cc1ccc(CNc2cc(Cl)nc3ccnn23)cc1 | –
19 | 62 | 19.1 | Clc1cc(NCc2ccccc2Cl)n2nccc2n1 | –
20 | 25 | > 30 | O=[N+]([O-])c1ccc(CNc2cc(Cl)nc3ccnn23)cc1 | –
21 | 74 | 15.9 | COc1ccccc1CNc1cc(Cl)nc2ccnn12 | –
22 | 113 | 1.1 | Clc1cc(NCc2ccccc2)n2nccc2n1 | IC50 [3]: 1.6 µM; IC50 [5]: 1.19 µM; IC50 [6]: 1.1 µM
23 | 43 | > 30 | FC(F)(F)c1ccc(CNc2cc(Cl)nc3ccnn23)cc1 | –
24 | 30 | > 30 | Clc1ccc(CNc2cc(Cl)nc3ccnn23)cc1 | –
